In article PMC5468247, “Development of a selective agonist for relaxin family peptide receptor 3” (Scientific Reports, 2017):

Legend:
human RXFP3 [1] = target: T1, human RXFP3 (Homo sapiens, UniProt Q9NSD7); assay: Receptor binding assay, NanoLuc-conjugated R3/I5 tracer competition; conditions: compared with R3/I5
T1 construct: expressed in transfected cells; host or cells: HEK293T
T1 sequence (Q9NSD7 1-469): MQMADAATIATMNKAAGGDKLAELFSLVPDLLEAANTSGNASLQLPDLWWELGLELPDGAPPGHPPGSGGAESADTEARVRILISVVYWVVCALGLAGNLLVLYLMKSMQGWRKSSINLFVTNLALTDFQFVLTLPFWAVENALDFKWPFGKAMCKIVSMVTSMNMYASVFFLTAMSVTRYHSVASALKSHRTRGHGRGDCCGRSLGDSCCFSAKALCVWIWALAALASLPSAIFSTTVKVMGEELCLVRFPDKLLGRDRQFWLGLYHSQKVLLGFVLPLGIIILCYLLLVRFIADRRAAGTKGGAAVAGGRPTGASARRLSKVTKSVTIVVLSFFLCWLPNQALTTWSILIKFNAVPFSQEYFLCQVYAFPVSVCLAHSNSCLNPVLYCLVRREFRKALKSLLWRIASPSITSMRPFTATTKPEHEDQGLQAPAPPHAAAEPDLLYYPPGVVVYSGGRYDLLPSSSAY
Experimental: (§1) Specific binding data are expressed as means ± SE (n = 3) and fitted to sigmoidal curves using SigmaPlot 10.0 software.
(§2) Briefly, HEK293T cells were transiently transfected with an expression construct of human RXFP3 or human RXFP4. On the next day, transfected cells were trypsinised, seeded into 96-well plates, and continuously cultured for 24–36 h to ~100% confluence. […] After incubation at 21 °C for 2 h, binding solution was removed and cells were washed twice with ice-cold phosphate-buffered saline (200 μl/well for each wash). Thereafter, cells were lysed by lysis solution (100 μl/well, Promega, Madison, WI, USA) and cell lysates were transferred to a white opaque 96-well plate (50 μl/well). After mixing with freshly diluted substrate (50 μl/well), bioluminescence was immediately measured on a SpectraMax M5 plate reader (Molecular Devices, Sunnyvale, CA, USA) in luminescence mode. […] The calculated specific binding data were expressed as means ± standard error (SE; n = 3) and fitted to sigmoidal curves using SigmaPlot 10.0 software.

human RXFP4 [2] = target: T2, human RXFP4 (Homo sapiens, UniProt Q8TDU9); assay: as above; conditions: for binding potency towards RXFP4, in words: compared with R3/I5
T2 construct: expressed in transfected cells; host or cells: HEK293T
Experimental: as §1, §2

human RXFP3 [3] = target: T1, human RXFP3; assay: Receptor activation assay, CRE-controlled NanoLuc reporter; format: cell-based; conditions: for activation potency towards RXFP3, in words: compared with R3/I5
Description: (§3) HEK293T cells transiently cotransfected with a CRE-controlled NanoLuc reporter vector and the expression construct of human RXFP3 or human RXFP4 were used for activation assays. The measured bioluminescence data are expressed as means ± SE (n = 3) and fitted to sigmoidal or linear curves using SigmaPlot 10.0.
(§4) Briefly, HEK293T cells were transiently cotransfected with the NanoLuc reporter vector pNL1.2/CRE and the expression construct of human RXFP3 or human RXFP4. On the next day, transfected cells were trypsinised, seeded into 96-well plates, and continuously cultured for 24–36 h to ~90% confluence. To initiate activation assays, medium was removed and activation solution (serum-free DMEM medium plus 1% bovine serum albumin) containing 1.0 μM of forskolin and various concentrations of peptide was added (100 μl/well). After continuous culturing at 37 °C for 4 h, activation solution was removed and cells were lysed with lysis solution (100 μl/well, Promega). Cell lysates were then transferred to a white opaque 96-well plate (50 μl/well), mixed with freshly diluted substrate (50 μl/well), and bioluminescence was immediately measured on a SpectraMax M5 plate reader (Molecular Devices) in luminescence mode. The measured data were expressed as means ± SE (n = 3) and fitted to sigmoidal or linear curves using SigmaPlot 10.0 software.

human RXFP4 [4] = target: T2, human RXFP4; assay: as above; format: cell-based; conditions: for fold lower activation potency towards RXFP4 compared with R3/I5: relative to R3/I5
Description: as §3, §4

[5] = CRE-NanoLuc reporter, human RXFP3

T2 sequence (Q8TDU9 whole entry): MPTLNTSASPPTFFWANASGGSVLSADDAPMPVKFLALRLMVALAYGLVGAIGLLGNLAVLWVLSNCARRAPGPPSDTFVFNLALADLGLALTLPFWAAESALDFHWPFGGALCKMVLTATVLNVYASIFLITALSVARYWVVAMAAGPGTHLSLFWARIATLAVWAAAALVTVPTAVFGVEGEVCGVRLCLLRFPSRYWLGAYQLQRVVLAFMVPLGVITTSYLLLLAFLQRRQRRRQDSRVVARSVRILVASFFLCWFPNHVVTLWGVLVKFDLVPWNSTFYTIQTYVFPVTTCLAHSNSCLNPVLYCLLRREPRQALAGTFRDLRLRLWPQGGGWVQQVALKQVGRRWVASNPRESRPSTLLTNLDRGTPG

Compound | binding potency towards RXFP3, in words (human RXFP3 [1]) | fold lower binding potency towards RXFP4 compared with R3/I5 (human RXFP4 [2]; relative to R3/I5) [fold] | activation potency towards RXFP3, in words (human RXFP3 [3]; [5]) | fold higher activation potency towards RXFP3 than towards RXFP4 (human RXFP3 [3]; selectivity RXFP3 over RXFP4, from activation assays) [fold] | fold lower activation potency towards RXFP4 compared with R3/I5 (human RXFP4 [4]) | binding potency towards RXFP4, in words (human RXFP4 [2]) | fold lower activation potency towards RXFP3 compared with R3/I5 (human RXFP3 [3]; CRE-NanoLuc reporter, human RXFP3, relative to R3/I5) | activation potency towards RXFP4, in words (human RXFP4 [4]; compared with R3/I5)
CC[C@H](C)[C@@H]1NC(=O)[C@H](Cc2ccccc2)NC(=O)[C@H](CCC(=O)O)NC(=O)[C@H](CCCNC(=N)N)NC(=O)CNC(=O)[C@@H](NC(=O)[C@H](CC(C)C)NC(=O)[C@H](CCCNC(=N)N)NC(=O)[C@@H](NC(=O)CNC(=O)[C@H](Cc2ccc(O)cc2)NC(=O)[C@@H]2CCCN2C(=O)[C@H](C)NC(=O)[C@H](C)NC(=O)[C@H](CCCNC(=N)N)NC(=O)[C@@H]2CCC(=O)N2)C(C)C)CSSC[C@@H]2NC(=O)[C@@H](NC(=O)[C@H](CC(C)C)NC(=O)[C@@H](NC(=O)[C@H](CCC(N)=O)NC(=O)[C@H](CC(C)C)NC(=O)[C@H](CC(=O)O)NC(=O)[C@H](CCC(N)=O)NC(=O)[C@H](CCCNC(=N)N)NC(=O)[C@H](CO)NC(=O)[C@H](CCCNC(=N)N)NC(=O)[C@H](CCCNC(=N)N)NC(=O)[C@H](CO)NC(=O)[C@@H](N)CCCNC(=N)N)[C@@H](C)O)CSSC[C@H](NC(=O)CNC(=O)[C@H](CC(=O)O)NC(=O)[C@H]([C@@H](C)O)NC2=O)C(=O)N[C@@H](CO)C(=O)N[C@@H](CCSC)C(=O)N[C@@H]([C@@H](C)O)C(=O)N[C@@H](CC(=O)O)C(=O)N[C@@H](CC(C)C)C(=O)N[C@@H](CO)C(=O)N[C@@H](C)C(=O)N[C@@H](CC(C)C)C(=O)N[C@H](C(=O)O)CSSC[C@@H](C(=O)NCC(=O)N[C@@H](CO)C(=O)N[C@@H](CO)C(=O)N[C@@H](CCCNC(=N)N)C(=O)N[C@@H](Cc2c[nH]c3ccccc23)C(=O)O)NC(=O)[C@H]([C@@H](C)O)NC(=O)[C@H](Cc2ccccc2)NC(=O)[C@H]([C@@H](C)CC)NC(=O)[C@H](C(C)C)NC(=O)[C@H](C)NC(=O)[C@H](CCCNC(=N)N)NC1=O [[G(B24)S]R3/I5] | retained full activation and binding potencies | 2 | retained full activation and binding potencies | 20 | 20 fold |  |  | 
CC[C@H](C)[C@@H]1NC(=O)[C@H](Cc2ccccc2)NC(=O)[C@H](CCC(=O)O)NC(=O)[C@H](CCCNC(=N)N)NC(=O)CNC(=O)[C@@H](NC(=O)[C@H](CC(C)C)NC(=O)[C@H](CCCNC(=N)N)NC(=O)[C@@H](NC(=O)CNC(=O)[C@H](Cc2ccc(O)cc2)NC(=O)[C@@H]2CCCN2C(=O)[C@H](C)NC(=O)[C@H](C)NC(=O)[C@H](CCCNC(=N)N)NC(=O)[C@@H]2CCC(=O)N2)C(C)C)CSSC[C@@H]2NC(=O)[C@@H](NC(=O)[C@H](CC(C)C)NC(=O)[C@@H](NC(=O)[C@H](CCC(N)=O)NC(=O)[C@H](CC(C)C)NC(=O)[C@H](CC(=O)O)NC(=O)[C@H](CCC(N)=O)NC(=O)[C@H](CCCNC(=N)N)NC(=O)[C@H](CO)NC(=O)[C@H](CCCNC(=N)N)NC(=O)[C@H](CCCNC(=N)N)NC(=O)[C@H](CO)NC(=O)[C@@H](N)CCCNC(=N)N)[C@@H](C)O)CSSC[C@H](NC(=O)CNC(=O)[C@H](CC(=O)O)NC(=O)[C@H]([C@@H](C)O)NC2=O)C(=O)N[C@@H](CO)C(=O)N[C@@H](CCSC)C(=O)N[C@@H]([C@@H](C)O)C(=O)N[C@@H](CC(=O)O)C(=O)N[C@@H](CC(C)C)C(=O)N[C@@H](CO)C(=O)N[C@@H](C)C(=O)N[C@@H](CC(C)C)C(=O)N[C@H](C(=O)O)CSSC[C@@H](C(=O)N[C@@H](CCCNC(=N)N)C(=O)N[C@@H](Cc2c[nH]c3ccccc23)C(=O)O)NC(=O)[C@H]([C@@H](C)O)NC(=O)[C@H](Cc2ccccc2)NC(=O)[C@H]([C@@H](C)CC)NC(=O)[C@H](C(C)C)NC(=O)[C@H](C)NC(=O)[C@H](CCCNC(=N)N)NC1=O [[∆B23-25]R3/I5] | almost normal binding potency |  |  |  | ~ 30 fold | almost normal binding potency | ~ 30 fold | 
CC[C@H](C)[C@@H]1NC(=O)[C@H](Cc2ccccc2)NC(=O)[C@H](CCC(=O)O)NC(=O)[C@H](CCCNC(=N)N)NC(=O)CNC(=O)[C@@H](NC(=O)[C@H](CC(C)C)NC(=O)[C@H](CCCNC(=N)N)NC(=O)[C@@H](NC(=O)CNC(=O)[C@H](Cc2ccc(O)cc2)NC(=O)[C@@H]2CCCN2C(=O)[C@H](C)NC(=O)[C@H](C)NC(=O)[C@H](CCCNC(=N)N)NC(=O)[C@@H]2CCC(=O)N2)C(C)C)CSSC[C@@H]2NC(=O)[C@@H](NC(=O)[C@H](CC(C)C)NC(=O)[C@@H](NC(=O)[C@H](CCC(N)=O)NC(=O)[C@H](CC(C)C)NC(=O)[C@H](CC(=O)O)NC(=O)[C@H](CCC(N)=O)NC(=O)[C@H](CCCNC(=N)N)NC(=O)[C@H](CO)NC(=O)[C@H](CCCNC(=N)N)NC(=O)[C@H](CCCNC(=N)N)NC(=O)[C@H](CO)NC(=O)[C@@H](N)CCCNC(=N)N)[C@@H](C)O)CSSC[C@H](NC(=O)CNC(=O)[C@H](CC(=O)O)NC(=O)[C@H]([C@@H](C)O)NC2=O)C(=O)N[C@@H](CO)C(=O)N[C@@H](CCSC)C(=O)N[C@@H]([C@@H](C)O)C(=O)N[C@@H](CC(=O)O)C(=O)N[C@@H](CC(C)C)C(=O)N[C@@H](CO)C(=O)N[C@@H](C)C(=O)N[C@@H](CC(C)C)C(=O)N[C@H](C(=O)O)CSSC[C@@H](C(=O)N[C@@H](CO)C(=O)NCC(=O)N[C@@H](CO)C(=O)N[C@@H](CCCNC(=N)N)C(=O)N[C@@H](Cc2c[nH]c3ccccc23)C(=O)O)NC(=O)[C@H]([C@@H](C)O)NC(=O)[C@H](Cc2ccccc2)NC(=O)[C@H]([C@@H](C)CC)NC(=O)[C@H](C(C)C)NC(=O)[C@H](C)NC(=O)[C@H](CCCNC(=N)N)NC1=O [[G(B23)S]R3/I5] | retained considerable binding potency |  | lost all activation potency |  | ~ 100 fold | retained high binding potency |  | 
CC[C@H](C)[C@@H]1NC(=O)[C@H](Cc2ccccc2)NC(=O)[C@H](CCC(=O)O)NC(=O)[C@H](CCCNC(=N)N)NC(=O)CNC(=O)[C@@H](NC(=O)[C@H](CC(C)C)NC(=O)[C@H](CCCNC(=N)N)NC(=O)[C@@H](NC(=O)CNC(=O)[C@H](Cc2ccc(O)cc2)NC(=O)[C@@H]2CCCN2C(=O)[C@H](C)NC(=O)[C@H](C)NC(=O)[C@H](CCCNC(=N)N)NC(=O)[C@@H]2CCC(=O)N2)C(C)C)CSSC[C@@H]2NC(=O)[C@@H](NC(=O)[C@H](CC(C)C)NC(=O)[C@@H](NC(=O)[C@H](CCC(N)=O)NC(=O)[C@H](CC(C)C)NC(=O)[C@H](CC(=O)O)NC(=O)[C@H](CCC(N)=O)NC(=O)[C@H](CCCNC(=N)N)NC(=O)[C@H](CO)NC(=O)[C@H](CCCNC(=N)N)NC(=O)[C@H](CCCNC(=N)N)NC(=O)[C@H](CO)NC(=O)[C@@H](N)CCCNC(=N)N)[C@@H](C)O)CSSC[C@H](NC(=O)CNC(=O)[C@H](CC(=O)O)NC(=O)[C@H]([C@@H](C)O)NC2=O)C(=O)N[C@@H](CO)C(=O)N[C@@H](CCSC)C(=O)N[C@@H]([C@@H](C)O)C(=O)N[C@@H](CC(=O)O)C(=O)N[C@@H](CC(C)C)C(=O)N[C@@H](CO)C(=O)N[C@@H](C)C(=O)N[C@@H](CC(C)C)C(=O)N[C@H](C(=O)O)CSSC[C@@H](C(=O)NCC(=O)N[C@@H](CCC(=O)O)C(=O)N[C@@H](CO)C(=O)N[C@@H](CCCNC(=N)N)C(=O)N[C@@H](Cc2c[nH]c3ccccc23)C(=O)O)NC(=O)[C@H]([C@@H](C)O)NC(=O)[C@H](Cc2ccccc2)NC(=O)[C@H]([C@@H](C)CC)NC(=O)[C@H](C(C)C)NC(=O)[C@H](C)NC(=O)[C@H](CCCNC(=N)N)NC1=O [[G(B24)E]R3/I5] | retained low binding potency |  | lost all activation potency |  |  | retained low binding potency |  | lost all activation potency
